From ChEMBL document CHEMBL5614460, “Discovery of novel substituted pyridine carboxamide derivatives as potent allosteric SHP2 inhibitors” (Eur J Med Chem, 2024)
Active and inactive are the calls of the source. No cut-off for these calls is given here.

Legend:
[1] = target: T1, Tyrosine-protein phosphatase non-receptor type 11 (Homo sapiens, UniProt Q06124); assay: Inhibition of SHP2 (unknown origin)
T1 sequence (Q06124 whole entry): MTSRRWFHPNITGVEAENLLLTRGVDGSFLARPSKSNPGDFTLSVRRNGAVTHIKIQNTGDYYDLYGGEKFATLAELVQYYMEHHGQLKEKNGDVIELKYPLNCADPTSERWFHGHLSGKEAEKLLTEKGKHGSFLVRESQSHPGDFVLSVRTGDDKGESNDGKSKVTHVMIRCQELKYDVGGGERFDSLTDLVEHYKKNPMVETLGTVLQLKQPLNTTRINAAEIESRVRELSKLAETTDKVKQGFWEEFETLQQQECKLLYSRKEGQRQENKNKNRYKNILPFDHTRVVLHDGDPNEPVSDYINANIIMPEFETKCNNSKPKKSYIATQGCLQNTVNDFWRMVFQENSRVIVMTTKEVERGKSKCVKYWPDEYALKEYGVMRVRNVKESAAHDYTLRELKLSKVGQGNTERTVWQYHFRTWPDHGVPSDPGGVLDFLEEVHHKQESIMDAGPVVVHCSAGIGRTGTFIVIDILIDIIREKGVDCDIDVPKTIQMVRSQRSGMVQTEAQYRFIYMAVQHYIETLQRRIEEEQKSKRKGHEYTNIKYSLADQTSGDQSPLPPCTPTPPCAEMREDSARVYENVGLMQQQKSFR

MV4-11 [2] = assay: Antitumor activity against human MV4-11 cells xenografted in BALB/C nude mouse model assessed as suppression of tumor growth administered intragastrically as once daily dose for 18 days; assay type: functional, cell-based; settings: dose 10-30 mg/kg, route ig, time 18.0 day
[3] = target: T1, Tyrosine-protein phosphatase non-receptor type 11; assay: Allosteric inhibition of N-terminal His-tagged human recombinant SHP2 extracted from Escherichia coli using DiFMUP as substrate preincubated with compound for 60 mins followed by substrate addition and measured after 30 mins by fluorescence based microplate reader analysis
MV4-11 [4] = assay: Antiproliferative activity against human MV4-11 cells assessed as inhibition of cell proliferation incubated for 72 hrs by CCK-8 assay; assay type: functional, cell-based
MV4-11 [5] = assay: Potency index, ratio of TNO155 IC50 to test compound IC50 for antiproliferative activity against human MV4-11 cells assessed as inhibition of cell proliferation incubated for 72 hrs by CCK-8 assay; assay type: functional
[6] = target: T2, Tyrosine-protein phosphatase non-receptor type 11 (Homo sapiens) (UniProt Q06124); assay: Inhibition of SHP2 PTP domain (unknown origin) using DiFMUP as substrate at 10 uM preincubated with compound for 60 mins followed by substrate addition and measured after 30 mins by fluorescence based microplate reader analysis relative to control; settings: time 90.0 min
T2 sequence (whole entry): T1 sequence (Q06124 whole entry)

[7] = target: Tyrosine-protein phosphatase non-receptor type 6 (Homo sapiens) (UniProt P29350); assay: Inhibition of SHP1 (unknown origin) using DiFMUP as substrate at 10 uM preincubated with compound for 60 mins followed by substrate addition and measured after 30 mins by fluorescence based microplate reader analysis relative to control; settings: time 90.0 min
Chain of Tyrosine-protein phosphatase non-receptor type 6 (Homo sapiens) (P29350 whole entry): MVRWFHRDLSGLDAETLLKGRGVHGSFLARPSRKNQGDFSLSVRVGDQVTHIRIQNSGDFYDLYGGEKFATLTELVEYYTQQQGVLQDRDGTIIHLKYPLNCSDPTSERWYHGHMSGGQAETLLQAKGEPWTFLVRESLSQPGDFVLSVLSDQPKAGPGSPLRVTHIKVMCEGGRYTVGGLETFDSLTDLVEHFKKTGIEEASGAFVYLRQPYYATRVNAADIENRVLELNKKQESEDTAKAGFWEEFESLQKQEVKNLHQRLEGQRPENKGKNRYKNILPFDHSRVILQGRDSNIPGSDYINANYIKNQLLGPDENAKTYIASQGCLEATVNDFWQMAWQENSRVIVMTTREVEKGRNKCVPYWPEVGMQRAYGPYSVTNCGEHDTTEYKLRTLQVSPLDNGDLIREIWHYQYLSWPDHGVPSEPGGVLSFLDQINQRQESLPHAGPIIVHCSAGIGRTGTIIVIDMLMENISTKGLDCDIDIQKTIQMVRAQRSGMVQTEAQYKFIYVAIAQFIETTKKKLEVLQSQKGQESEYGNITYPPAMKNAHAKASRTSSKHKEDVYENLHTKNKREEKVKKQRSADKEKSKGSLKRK

[8] = target: T3, Tyrosine-protein phosphatase non-receptor type 1 (Homo sapiens) (UniProt P18031); assay: Inhibition of PTP1B (unknown origin) using DiFMUP as substrate at 10 uM preincubated with compound for 60 mins followed by substrate addition and measured after 30 mins by fluorescence based microplate reader analysis relative to control; settings: time 90.0 min
T3 sequence (whole entry): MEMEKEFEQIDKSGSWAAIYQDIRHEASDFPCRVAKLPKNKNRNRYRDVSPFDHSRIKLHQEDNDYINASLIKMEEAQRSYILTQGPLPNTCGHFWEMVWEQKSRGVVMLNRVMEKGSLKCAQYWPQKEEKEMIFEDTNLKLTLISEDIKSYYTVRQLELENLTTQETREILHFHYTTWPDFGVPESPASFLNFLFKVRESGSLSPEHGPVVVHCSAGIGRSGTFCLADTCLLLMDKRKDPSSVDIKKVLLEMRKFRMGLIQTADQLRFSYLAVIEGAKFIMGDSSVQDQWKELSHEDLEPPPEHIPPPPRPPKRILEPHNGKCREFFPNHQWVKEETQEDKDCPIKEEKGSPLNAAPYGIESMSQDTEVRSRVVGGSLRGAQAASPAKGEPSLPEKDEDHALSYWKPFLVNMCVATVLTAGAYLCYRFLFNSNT

[9] = Cmax in male Sprague-Dawley rat at 2 mg/kg, iv measured for 24 hrs by LC/MS analysis; assay type: ADME, organism-based; settings: in vivo
[10] = Cmax in male Sprague-Dawley rat at 10 mg/kg, po measured for 24 hrs by LC/MS analysis; assay type: ADME, organism-based; settings: in vivo
[11] = Tmax in male Sprague-Dawley rat at 2 mg/kg, iv measured for 24 hrs by LC/MS analysis; assay type: ADME, organism-based; settings: in vivo
[12] = Tmax in male Sprague-Dawley rat at 10 mg/kg, po measured for 24 hrs by LC/MS analysis; assay type: ADME, organism-based; settings: in vivo
[13] = Half life in male Sprague-Dawley rat at 2 mg/kg, iv measured for 24 hrs by LC/MS analysis; assay type: ADME, organism-based; settings: in vivo
[14] = Half life in male Sprague-Dawley rat at 10 mg/kg, po measured for 24 hrs by LC/MS analysis; assay type: ADME, organism-based; settings: in vivo
[15] = AUC (0 to infinity) in male Sprague-Dawley rat at 2 mg/kg, iv measured for 24 hrs by LC/MS analysis; assay type: ADME, organism-based; settings: in vivo
[16] = AUC (0 to infinity) in male Sprague-Dawley rat at 10 mg/kg, po measured for 24 hrs by LC/MS analysis; assay type: ADME, organism-based; settings: in vivo
[17] = Apparent volume of distribution during terminal phase in male Sprague-Dawley rat at 2 mg/kg, iv measured for 24 hrs by LC/MS analysis; assay type: ADME, organism-based; settings: in vivo
[18] = Apparent clearance during terminal phase in male Sprague-Dawley rat at 2 mg/kg, iv measured for 24 hrs by LC/MS analysis; assay type: ADME, organism-based; settings: in vivo
[19] = Oral bioavailability in male Sprague-Dawley rat at 10 mg/kg measured for 24 hrs by LC/MS analysis; assay type: ADME, organism-based; settings: in vivo
MV4-11 [20] = assay: Antitumor activity against human MV4-11 cells xenografted in BALB/C nude mouse model assessed as tumor growth inhibition at 30 mg/kg, IG administered once daily for 18 days relative to control; assay type: functional; settings: MV4-11, po, 432 h, time 18 day, read-out: TGI
MV4-11 [21] = assay: Antitumor activity against human MV4-11 cells xenografted in BALB/C nude mouse model assessed as tumor growth inhibition at 10 mg/kg, IG administered once daily for 18 days relative to control; assay type: functional; settings: MV4-11, po, 432 h, time 18 day, read-out: TGI
[22] = Toxicity in BALB/C nude mouse xenografted with human […] cells assessed as animal death at 10 to 30 mg/kg, IG administered once daily for 18 days; assay type: organism-based; settings: in vivo, po, 432 h, dose 10-30 mg/kg, time 18 day
[23] = Toxicity in BALB/C nude mouse xenografted with human […] cells assessed as change in body weight at 10 to 30 mg/kg, IG administered once daily for 18 days; assay type: organism-based; settings: in vivo, po, 432 h, dose 10-30 mg/kg, time 18 day
MV4-11 [24] = assay: Antitumor activity against human MV4-11 cells xenografted in BALB/C nude mouse model assessed as appearance of pyknotic nuclei in tumor at 10 to 30 mg/kg, IG administered once a day for 18 days by H and E staining based analysis; assay type: functional, organism-based; settings: dose 10-30 mg/kg, time 18.0 day
MV4-11 [25] = assay: Antitumor activity against human MV4-11 cells xenografted in BALB/C nude mouse model assessed as appearance of shrunken nuclei in tumor at 10 to 30 mg/kg, IG administered once a day for 18 days by H and E staining based analysis; assay type: functional, organism-based; settings: dose 10-30 mg/kg, time 18.0 day
[26] = target: T2, Tyrosine-protein phosphatase non-receptor type 11 (Homo sapiens); assay: Inhibition of SHP2 in human MV4-11 cells assessed as downregulation of phosphorylated Akt level incubated for 12 hrs by Western blot analysis; assay type: cell-based; settings: dose 0-5 µM
[27] = target: T2, Tyrosine-protein phosphatase non-receptor type 11 (Homo sapiens); assay: Inhibition of SHP2 in human MV4-11 cells assessed as downregulation of phosphorylated ERK level incubated for 12 hrs by Western blot analysis; assay type: cell-based; settings: dose 0-5 µM
MV4-11 [28] = assay: Antitumor activity against human MV4-11 cells xenografted in BALB/C nude mouse model assessed as reduction in Ki67 expression administered intragastrically as once daily dose for 18 days by immunohistochemistry staining based analysis; assay type: functional, cell-based; settings: dose 10-30 mg/kg, route ig, time 18.0 day
MV4-11 [29] = assay: Antitumor immunity against human MV4-11 cells xenografted in BALB/C nude mouse model assessed as suppression of CD206+/Ly6C+ M2-like tumor associated macrophages in lymphocytes at 10 to 30 mg/kg, IG administered once daily for 18 days by flow cytometric analysis; assay type: functional, organism-based; settings: dose 10-30 mg/kg, time 18.0 day
MV4-11 [30] = assay: Antitumor immunity against human MV4-11 cells xenografted in BALB/C nude mouse model assessed as reduction of IL-10 expression level in tumor at 30 mg/kg, IG administered once daily for 18 days by ELISA; assay type: functional, organism-based; settings: time 18.0 day
MV4-11 [31] = assay: Antitumor immunity against human MV4-11 cells xenografted in BALB/C nude mouse model assessed as reduction in F4/80+/CD206+ M2-like tumor associated macrophages at 10 to 30 mg/kg, IG administered once daily for 18 days by immunofluorescence staining […]; assay type: functional, organism-based; settings: dose 10-30 mg/kg, time 18.0 day
[32] = Toxicity in BALB/C nude mouse xenografted with human […] cells assessed as animal death at 30 mg/kg, IG administered once daily for 18 days; assay type: organism-based; settings: in vivo, po, 432 h, time 18 day
[33] = Toxicity in BALB/C nude mouse xenografted with human […] cells assessed as change in body weight at 30 mg/kg, IG administered once daily for 18 days; assay type: organism-based; settings: in vivo, po, 432 h, time 18 day

Compound `Cc1nc(N2CCC3(CC2)CO[C@@H](C)[C@H]3N)c(CO)nc1Sc1ccnc(N)c1Cl` [VOCIPROTAFIB] has an IC50 [1] of 1.5 nM.

With `N[C@@H]1c2ccccc2CC12CCN(c1cnc(Sc3cccc(NC(=O)c4cnccc4O)c3Cl)cn1)CC2` the Activity (MV4-11 [2]) was “Dose-Dependent Effect”, the IC50 [3] was 0.13 nM and the IC50 (MV4-11 [4]; Homo sapiens, MV4-11, 72 h) was 3.5 nM. The “Ratio IC50” value (MV4-11 [5]) was ~11, the inhibition [6] was 13.2% and the inhibition [7] was 29.3%. For the same compound, the inhibition [8] was 8.7%, the Cmax [9] was 681 ng/mL and the Cmax [10] was 70.1 ng/mL. The Tmax [11] was 1.8 min, the Tmax [12] was 3.24 h and the half-life [13] was 4.26 h. For the same compound, the half-life [14] was 4.66 h, the AUC(0-inf) [15] was 1260 ng·h/mL and the AUC(0-inf) [16] was 762 ng·h/mL. It also gave a Vz/F [17] of 11.04 L/kg, a CLz/F [18] of 29 mL/min/kg and a bioavailability [19] of 11.9%. The inhibition in vivo at 30 mg/kg (MV4-11 [20]) was 69.5%, the inhibition in vivo at 10 mg/kg (MV4-11 [21]) was 45.9% and the Activity [22] was “Non-Toxic”. For the same compound, the Activity [23] was “Non-Toxic”, the Activity (MV4-11 [24]) was “Active” and the Activity (MV4-11 [25]) was “Active”. For the same compound, the inhibition [26] was “Dose-Dependent Effect”, the inhibition [27] was “Dose-Dependent Effect” and the Activity (MV4-11 [28]) was “Dose-Dependent Effect”. The Activity (MV4-11 [29]) was “Active”, the Activity (MV4-11 [30]) was “Active” and the Activity (MV4-11 [31]) was “Active”.

In the case of `C[C@@H]1OCC2(CCN(c3cnc(Sc4ccnc(N)c4Cl)c(N)n3)CC2)[C@@H]1N` [BATOPROTAFIB], the IC50 (MV4-11 [4]; mv4-11) is reported as 39 nM, the inhibition in vivo at 30 mg/kg (MV4-11 [20]) is reported as 70.8% and the Activity [32] is reported as “Non-Toxic”. The Activity [33] was “Non-Toxic”.
